Results as given in EPA's ToxRefDB 2.

Key:
rat [1] = details: Subchronic oral toxicity in rodents, other, Feed, dose end: 90 day, group: systemic
mouse [2] = details: Subchronic oral toxicity in rodents, cd1, Feed, dose end: 90 day, group: systemic
mouse [3] = details: Prenatal developmental toxicity study, cd1, Oral, Gavage/Intubation, dose end: 14 GD
rat [4] = details: Subchronic oral toxicity in rodents, wistar, Feed, dose end: 90 day, group: systemic, systemic / in life observation / body weight / body weight + systemic / in life observation / food consumption / food consumption + systemic…
dog [5] = details: Subchronic oral toxicity in nonrodent, beagle, Feed, dose end: 13 week, group: systemic
rat [6] = details: Prenatal developmental toxicity study, sprague dawley, Oral, Gavage/Intubation, dose end: 15 GD
rat [7] = details: Subchronic oral toxicity in rodents, sprague dawley, Feed, dose end: 90 day, group: systemic
mouse [8] = details: Carcinogenicity, cd1, Oral, Feed, dose end: 18 month, group: systemic
dog [9] = details: Subchronic oral toxicity in nonrodent, beagle, Feed, dose end: 13 week, group: systemic; remark: listed apart in the source
dog [10] = details: Chronic toxicity, beagle, Oral, Feed, dose end: 52 week, group: systemic
mouse [11] = details: Carcinogenicity, cd1, Oral, Feed, dose end: 18 month, group: systemic; remark: listed apart in the source
mouse [12] = details: Subchronic oral toxicity in rodents, cd1, Feed, dose end: 13 week, group: systemic
rat [13] = details: Multigenerational reproductive toxicity study, sprague dawley, Oral, Feed, dose end: 2 generation
rat [14] = details: Combined chronic toxicity/carcinogenicity, sprague dawley, Oral, Feed, dose end: 24 month, group: systemic
mouse [15] = details: Multigenerational reproductive toxicity study, other, Oral, Feed, dose end: 1 generation
rat [16] = details: Carcinogenicity; fischer; Oral; Water; dose end: 104 week; group: systemic; systemic / in life observation / water consumption / water consumption
dog [17] = details: Chronic toxicity; beagle; Oral; Capsule; dose end: 12 month; group: cholinesterase; cholinesterase / cholinesterase / cholinesterase / plasma cholinesterase (che)
[18] = systemic / in life observation / food consumption / food consumption
[19] = systemic / in life observation / food consumption / food consumption + systemic / in life observation / body weight / body weight + systemic…
[20] = systemic / in life observation / body weight / body weight gain + systemic / organ weight / heart / relative to body weight + systemic / …
[21] = group: developmental, systemic / in life observation / body weight / offspring (pup) weight
[22] = group: maternal, systemic / in life observation / mortality / mortality
[23] = systemic / in life observation / body weight / body weight + systemic / in life observation / food consumption / food consumption + systemic…
[24] = group: developmental, developmental / developmental malformation / kidney / dilated renal pelvis + developmental / developmental malformation / ureter / dilated
[25] = group: maternal, systemic / in life observation / body weight / body weight gain + systemic / in life observation / food consumption / food consumption
[26] = systemic / in life observation / body weight / body weight gain
[27] = systemic / in life observation / clinical signs / defecation (diarrhea)
[28] = systemic / in life observation / clinical signs / defecation (diarrhea) + systemic / clinical chemistry / alpha-1 globulin / alpha-1 …
[29] = systemic / in life observation / body weight / body weight gain + systemic / clinical chemistry / alkaline phosphatase (alp/alk) / alkaline …
[30] = systemic / clinical chemistry / 5' nucleotidase / 5' nucleotidase + systemic / clinical chemistry / alkaline phosphatase (alp/alk) / …
[31] = group: offspring, systemic / in life observation / body weight / offspring (pup) weight + systemic / in life observation / body weight / offspring (pup) …
[32] = group: parental, systemic / in life observation / clinical signs / anogenital staining
[33] = group: parental, systemic / in life observation / clinical signs / anogenital staining + systemic / in life observation / body weight / body weight + …
[34] = systemic / in life observation / body weight / body weight + systemic / in life observation / body weight / body weight gain + systemic / …
[35] = group: offspring, systemic / in life observation / body weight / litter weight + systemic / in life observation / body weight / offspring (pup) weight + …
[36] = group: reproductive, reproductive / reproductive performance / mating / mating + reproductive / reproductive performance / estrous cycle / length + reproductive…

## CCOCCOCCO [2-(2-Ethoxyethoxy)ethanol]
Rat [1]; [18]
  LEL: 250 mg/kg/day
  NEL: < 250 mg/kg/day
Rat [1]; [19]
  LOAEL: > 2500 mg/kg/day
  NOAEL: ≥ 2500 mg/kg/day
Mouse [2]; [20]
  LOAEL: > 8100 mg/kg/day
  NEL: 900 mg/kg/day
  NOAEL: ≥ 8100 mg/kg/day
Mouse [2]; systemic / in life observation / body weight / body weight gain + systemic / organ weight / kidney / relative to body weight
  LEL: 2700 mg/kg/day
Mouse [3]; [21]
  LEL: 5500 mg/kg/day
  LOAEL: > 5500 mg/kg/day
  NEL: < 5500 mg/kg/day
  NOAEL: ≥ 5500 mg/kg/day
Mouse [3]; [22]
  LEL: 5500 mg/kg/day
  LOAEL: > 5500 mg/kg/day
  NEL: < 5500 mg/kg/day
  NOAEL: ≥ 5500 mg/kg/day
Rat [4]
  LEL: 2500 mg/kg/day
  LOAEL: > 2500 mg/kg/day
  NEL: 500 mg/kg/day
  NOAEL: ≥ 2500 mg/kg/day

## Cn1sccc1=O [2-Methyl-3(2H)-isothiazolone]
Dog [5]; systemic / in life observation / body weight / body weight + systemic / in life observation / food consumption / food consumption
  LOAEL: 40.6 mg/kg/day
Dog [5]; [23]
  LEL: 40.6 mg/kg/day
  NEL: 9.9 mg/kg/day
  NOAEL: 9.9 mg/kg/day

## N#Cc1c[nH]cc1-c1cccc2c1OC(F)(F)O2 [Fludioxonil]
Rat [6]; [24]
  LOAEL: 1000 mg/kg/day
  NEL: 10 mg/kg/day
  NOAEL: 100 mg/kg/day
Rat [6]; group: developmental, developmental / developmental malformation / ureter / dilated
  LEL: 100 mg/kg/day
Rat [6]; group: maternal, systemic / in life observation / body weight / body weight gain
  LOAEL: 1000 mg/kg/day
Rat [6]; [25]
  LEL: 1000 mg/kg/day
  NEL: 100 mg/kg/day
  NOAEL: 100 mg/kg/day
Rat [7]; systemic / in life observation / body weight / body weight gain + systemic / pathology microscopic / kidney / nephropathy
  LOAEL: 428 mg/kg/day
Rat [7]; systemic / in life observation / body weight / body weight gain + systemic / pathology microscopic / kidney / nephropathy + systemic / …
  NOAEL: 64 mg/kg/day
Rat [7]; systemic / organ weight / thymus / relative to body weight
  LEL: 70 mg/kg/day
Rat [7]; systemic / organ weight / thymus / relative to body weight + systemic / clinical chemistry / alkaline phosphatase (alp/alk) / alkaline …
  NEL: 7.1 mg/kg/day
Mouse [8]; [26]
  LEL: 1.1 mg/kg/day
  NEL: < 1.1 mg/kg/day
Mouse [8]; systemic / in life observation / body weight / body weight gain + systemic / in life observation / clinical signs / convulsions + systemic…
  NOAEL: 11.3 mg/kg/day
Mouse [8]; systemic / in life observation / clinical signs / convulsions + systemic / in life observation / clinical signs / urine, discoloration + …
  LOAEL: 112 mg/kg/day
Dog [9]; [27]
  LEL: 50 mg/kg/day
  LOAEL: 50 mg/kg/day
Dog [9]; [28]
  NEL: 5 mg/kg/day
  NOAEL: 5 mg/kg/day
Dog [10]; [26]
  LEL: 35.5 mg/kg/day
  LOAEL: 35.5 mg/kg/day
Dog [10]; [29]
  NEL: 3.3 mg/kg/day
  NOAEL: 3.3 mg/kg/day
Mouse [11]; systemic / organ weight / heart / absolute + systemic / organ weight / kidney / absolute + systemic / organ weight / liver / relative to …
  NEL: 3.3 mg/kg/day
Mouse [11]; systemic / pathology microscopic / kidney / nephropathy
  LOAEL: 590 mg/kg/day
Mouse [11]; systemic / pathology microscopic / kidney / nephropathy + systemic / hematology / hematocrit (hct) / hematocrit (hct) + systemic / …
  NOAEL: 3.3 mg/kg/day
Mouse [11]; systemic / pathology microscopic / kidney / nephropathy + systemic / hematology / hemoglobin (hgb) / hemoglobin (hgb) + systemic / …
  LEL: 590 mg/kg/day
Mouse [12]; [30]
  LOAEL: 1050 mg/kg/day
  NOAEL: 445 mg/kg/day
Mouse [12]; systemic / organ weight / liver / relative to body weight + systemic / pathology microscopic / liver / hypertrophy
  LEL: 559 mg/kg/day
Mouse [12]; systemic / organ weight / liver / relative to body weight + systemic / pathology microscopic / liver / hypertrophy + systemic / clinical …
  NEL: 178 mg/kg/day
Rat [13]; group: offspring, systemic / in life observation / body weight / offspring (pup) weight
  LOAEL: 222 mg/kg/day
Rat [13]; [31]
  LEL: 222 mg/kg/day
  NEL: 22.1 mg/kg/day
  NOAEL: 22.1 mg/kg/day
Rat [13]; [32]
  NEL: 22.1 mg/kg/day
  NOAEL: 22.1 mg/kg/day
Rat [13]; [33]
  LEL: 222 mg/kg/day
  LOAEL: 222 mg/kg/day
Rat [14]; [34]
  LOAEL: 113 mg/kg/day
  NEL: 3.7 mg/kg/day
  NOAEL: 37 mg/kg/day
Rat [14]; systemic / in life observation / clinical signs / body surface staining + systemic / in life observation / clinical signs / feces, …
  LEL: 37 mg/kg/day

## O=C(OC[C@H]1O[C@@H](OC(=O)c2cc(O)c(O)c(OC(=O)c3cc(O)c(O)c(O)c3)c2)[C@H](OC(=O)c2cc(O)c(O)c(OC(=O)c3cc(O)c(O)c(O)c3)c2)[C@@H](OC(=O)c2cc(O)c(O)c(OC(=O)c3cc(O)c(O)c(O)c3)c2)[C@@H]1OC(=O)c1cc(O)c(O)c(OC(=O)c2cc(O)c(O)c(O)c2)c1)c1cc(O)c(O)c(OC(=O)c2cc(O)c(O)c(O)c2)c1 [Tannic acid]
Mouse [15]; [35]
  LEL: 12000 mg/kg/day
  LOAEL: > 12000 mg/kg/day
  NEL: < 12000 mg/kg/day
  NOAEL: ≥ 12000 mg/kg/day
Mouse [15]; [36]
  LEL: 12000 mg/kg/day
  LOAEL: > 12000 mg/kg/day
  NEL: < 12000 mg/kg/day
  NOAEL: ≥ 12000 mg/kg/day
Rat [16]
  LEL: 131 mg/kg/day
  LOAEL: > 243 mg/kg/day
  NEL: < 131 mg/kg/day
  NOAEL: ≥ 243 mg/kg/day

## CCOP(=S)(OCC)SCSC(C)(C)C [Terbufos]
Dog [17]
  LEL: 0.015 mg/kg/day
  LOAEL: 0.015 mg/kg/day
  NEL: < 0.015 mg/kg/day
  NOAEL: < 0.015 mg/kg/day
